Earlier results on 1 compound are cited in US20140363484A1, “FIBROUS BIO-DEGRADABLE POLYMERIC WAFERS SYSTEM FOR THE LOCAL DELIVERY OF THERAPEUTIC AGENTS IN COMBINATIONS” (Amrita Vishwa Vidyapeetham, priority 2012, published 2014).

The conditions of the data set: under physiological conditions.

Structures are written as SMILES.

For `Cn1nnc2c(C(N)=O)ncn2c1=O` [temozolomide], the half-life (as a rule, how long it takes for the measured level to halve) is reported as 1.8 h.
